According to patent US6630313B2, “Phosphatidyl serine receptors and uses thereof” (National Jewish Medical and Research Center, priority 2000, dated 2003):

Experiments:
HMDM = experiment: Uptake of apoptotic cells by HMDM; format: cell-based, human; conditions: control agents
Protocol: Human monocytes were obtained from normal donors, and cultured in X-Vivo 10 (BioWhitaker) containing 10% human serum. The differentiated macrophages (HMDM) were used at 7 days of culture. Mouse bone-marrow derived macrophages were derived by culturing bone marrow cells in M-CSF for 5-7 days.
Macrophages, fibroblasts, or epithelial cells were preincubated with 100 μM liposomes (containing 50:50 molar ratio of PS:PC or PI:PC), 1 mM RGDS or RGES, undiluted hybridoma supernatants containing mAb 217 or mAb 284 (for HMDM) or 100 μg/ml purified mAb 217, or 100 μg/ml isotype controls for 30 minutes prior to adding apoptotic Jurkat T cells at ratio of 5:1 target:phagocyte. Apoptosis was induced in Jurkat T cell by UV irradiation as described (Fadok et al., J Clin Invest 101:890-898 (1998)). THP-1 cells were stimulatedwith PMA (160 nM) for 72 hours to induce a macrophage phenotype, the ability to adhere, and the ability to take up apoptotic cells. After 1 hr, the phagocytes were washed and fixed for light microscopic evaluation of uptake. […] Aliquots were removed and assessed for binding and phagocytosis by light microscopy as described (Fadok et al., J Immunol 148:2207-2216 (1992); Fadok et al., J Immunol 149:4029-4035 (1992); Fadok et al., J Immunol 151:4274-4285 (1993); Fadok et al., J Immunol 161:6250-6257 (1998)). […]

[1] = tested on: Jurkat T cells transfected with the candidate PSR; experiment: Binding and phagocytosis of symmetric red cell ghosts; format: cell-based, human; conditions: for binding of symmetric red cell ghosts: FIG. 5; for binding and phagocytosis of symmetric red cell ghosts: stably transfected Jurkat T cells, FIG. 5 legend
Excerpt: A human EST clone (Accession No. R24727) containing the full length gene was obtained through the IMAGE Consortium via ATCC (Manassas, Va.). The insert was subcloned into pcDNA 3.1/neo at Hind III/Not I sites (Invitrogen, Carlsbad, Calif.). M12.C3 cells were transfected in OptiMEM I medium using Lipofectamine Plus (both from GibcoBRL Life Science Technologies, Grand Island, N.Y.). Jurkat T cells were transfected in OptiMEM I medium using DMRIE C Jurkat T cells were stimulated with PHA alone (1 μg/ml) or with PMA (1.6 nM) and PHA to induce expression of the receptor. After 48 hrs, the cells were analyzed for expression of the PS receptor using mAb 217 and flow cytometry. For stable transfections, Jurkat T cells were selected in G418 (1 mg/ml). Surface expression of the receptor was induced by treatment of the stably transfected cells with 160 nM PMA in the absence of G418 for 48 hours. The candidate PSR was also inserted into pRc/RSV (PharMingen, San Diego, Calif.), or pUP (provided by Brian Schaefer), and transfected into Jurkat T cells or M12.C3 cells by electroporation.
Human red blood cells were lysed in 1:50 PBS containing 1 mM CaCl2 on ice for one hour; they were resealed at 37° C. for 30 minutes by addition of 5×PBS. Exposure of phosphatidylserine was confirmed by binding of annexin-FITC, assessed by flow cytometry.

Compound | effect on uptake of apoptotic cells by HMDM (HMDM) | binding of symmetric red cell ghosts [1] | binding and phagocytosis of symmetric red cell ghosts [1]
RGES | no effect | – | –
N[C@@H](COP(=O)(O)O)C(=O)O [phospho-L-serine] | – | inhibited | inhibited stereospecifically
N[C@H](COP(=O)(O)O)C(=O)O [phospho-D-serine] | – | not | not
